Data on 2 compounds can be found in patent US20210222105A1, “A Microfluidic Cartridge, A Kit And An Assay” (CENTRE FOR CELLULAR AND MOLECULAR PLATFORMS, priority 2018, published 2021).

Format in all cases: cell-based, Escherichia coli
The subject of one test is E. coli. Nature of the test: Agent susceptibility test in microfluidic cartridge with DNA-based pH sensor (FRET, donor fluorescence). The conditions noted are these: 5×10^5 CFU/ml, 37° C., up to 6 hour incubation, FIGS. 17, 19. On the procedure:
About 5 μM sensor was prepared and stored at about 4° C. overnight for equilibration of the sensors. Overnight grown cultures of E. coli, S. aureus, E. faecalis was picked from LB agar plate and dispersed in cation adjusted Mueller Hinton broth with 1% glucose. The concentration of the cells were adjusted to 0.5 MFU. antibiotic dilution was prepared according to CSI guidelines. Stock solutions were prepared in 96 well plate using 23 μl of cation adjusted Muller Hinton broth, 25 μl of desired concentration of antibiotic and 2 μl of 5 μM sensors. Then 50 μl of 1×10^6 CFU/ml inoculum was added in wells to achieve inoculum size 5×10^5 CFU/ml in final assay volume. Each stock solution was loaded on microfluidic cartridge. Microfluidic cartridge was sealed with polypropylene sealing film and incubated at 37° C. with 70% humidity. The change in the donor fluorescence intensity was recorded till 6 hour incubation. Each microchamber of the microfluidic cartridge was image using 1×73 Olympus inverted fluorescence microscope. Images were analyzed using ImageJ version 1.8.0. the average was taken over replicate and standard deviation was calculated (illustrated in FIG. 18).

Test [1] deals with E. coli ATCC 25922 QC strain. Nature of the test: Qualitative phenol red colour-change test of microbial growth in microfluidic cartridge and 96 well plate. The conditions noted are these: 37° C., results in 3 hour, FIG. 15. The protocol: Qualitative test was performed to check microbial growth in the microfluidic cartridge. Phenol red (about 0.05% w/v) containing cation adjusted Muller Hinton broth was used as susceptibility indicator. Microbial growth changes pH and Phenol red changes color with pH variation. Thus, a colour change could provide a read-out on the susceptibility or resistance of a microorganism. No color change would indicate no growth as a response to antibiotics. Briefly, microfluidic cartridge was cleaned with water and then rinsed with 70% ethanol and then UV sterilized by exposing under UV light for about 30 minutes. To compare the susceptibility test preformed on the microfluidic cartridge and 96 well plate, master mix of about 150 μl was prepared on 96 well plate and 6 μl o the master mix was used in microchamber of the microfluidic cartridge. Both 96 well plate and microfluidic cartridge was sealed with lamination film and incubated at 37° C. and change in color intensity was recorded (illustrated in FIG. 15). […] The results were obtained in 3 hour and design of the microfluidic cartridge was suitable for microbial growth and no cross contamination was observed.

The next test deals with E. coli ATCC 25922. Nature of the test: Agent susceptibility phenotypic assay, microfluidic cartridge compared with 96 well plate. The following applies: 0.5, 1, 2 and 4 μg/ml tested; 0.5 MCF inoculum; cation adjusted Muller Hinton broth; FIG. 14. The protocol: The agent susceptibility assay was carried out in a microfluidic cartridge. This assay was also carried out in a micro-titer plate as a standard reference control. Bacterial/clinical sample grown at suitable turbidity or at least about 0.3 to about 1.0 McFarland unit was transferred to the microchamber. The microchamber had microbial growth sensors (pH sensor) at concentration of about 5 μM to about 50 μM, cation adjusted Muller Hinton broth or suitable microbial growth media, and antibiotics concentration based on CLSI guidelines. The total reaction volume range was from about 6 μl to about 150 μl. Plate/test card were sealed using plate sealer or lamination film and incubated at about 32° C. to about 37° C., at about 300-500 rpm orbital shaking. The change in the fluorescence intensity of pH sensors was measured using fluorescence reader after every 20-60 minutes till about 4-7 hours incubation period. Thus, the susceptibility or resistance of the microorganism was assessed towards the agent.
Agent susceptibility was tested on microfluidic cartridge and the outcome compared with optimized 96 well plate. Phenotypic assay was optimized on 96 well pate, briefly, an overnight grown E. coli ATCC25922 culture was dispersed in cation adjusted muller Hinton broth to prepare inoculum of 0.5 MCF unit.

Turning to `CCN1CCN(C(=O)N[C@@H](C(=O)N[C@@H]2C(=O)N3[C@@H]2SC(C)(C)[C@@H]3C(=O)O)c2ccccc2)C(=O)C1=O` [piperacillin], in the test on E. coli, the “sensitivity cut of value” is “about 2 μg/ml”.

On to `NCC[C@H](O)C(=O)N[C@@H]1C[C@H](N)[C@@H](O[C@H]2O[C@H](CN)[C@@H](O)[C@H](O)[C@H]2O)[C@H](O)[C@H]1O[C@H]1O[C@H](CO)[C@@H](O)[C@H](N)[C@H]1O` [amikacin], for which the “change in colour of indicator dye (phenol red)” value in test [1] (amikacin concentration above 2 μg/ml) is on record as “no change in the color intensity”; in test [1] (at 0.5 and 1 ug/ml amikacin), “change in the color of indicator dye”. In addition, the “amikacin concentration at which E. coli ATCC 25922 showed susceptibility” value in the test on E. coli ATCC 25922 was 2 µg/mL.
